The source of these data is patent US9586931B2 (Merck Sharp & Dohme Corp., priority 2012, dated 2017).

Molecules are shown by their SMILES.

For this assay, the target named is T1, recombinant human GST-Syk (Homo sapiens, UniProt P43405).
T1 construct: purchased Carna Biosciences 08-176
Description: Homogeneous Time-Resolved Fluorescence (HTRF) assay for the recombinant human Syk enzyme. The format is biochemical. Conditions: recombinant human GST-Syk 5 pM, ATP 25 μM, 10-dose titration 10 μM to 0.508 nM; read-out: rhSYK Activity IC50. The gist of the method: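 GST-hSyk fusion protein phosphorylated a peptide for 45 min at room temperature. The reaction was quenched with 2 nM Eu-anti-phosphotyrosine antibody and 70 nM SA-APC in 15 mM Tris pH 7.5, 40 mM EDTA, 0.01% Tween 20. The HTRF signal was read after 30 min.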
On the technique in general: Time-resolved FRET reads energy transfer from a long-lived donor to a nearby acceptor.
As to `Cc1cc(Nc2cc(C(F)(F)F)ccn2)nc(-c2cn(CC3(O)CCOC3)nn2)c1` (single isomer, unassigned) [Example 5.11, 3-{[4-(4-methyl-6-{[4-(trifluoromethyl)pyridin-2-yl]amino}pyridin-2-yl)-1H-1,2,3-triazol-1-yl]methyl}tetrahydrofuran-3-ol], the concentration for half-maximal inhibition (IC50) was determined as 0.0218 µM. As for `Cc1cc(Nc2nccc(C(F)F)n2)cc(-c2cn(CC3OC(=O)NC3C)nn2)c1` (single isomer, unassigned) [Example 7.41, 5-{[4-(3-{[4-(difluoromethyl)pyrimidin-2-yl]amino}-5-methylphenyl)-1H-1,2,3-triazol-1-yl]methyl}-4-methyl-1,3-oxazolidin-2-one], the 50% inhibitory concentration (IC50) was found to be 0.0128 µM. Then `Cc1cc(Nc2nccc(C(F)(F)F)n2)cc(-n2cc(C3(O)CCC4(CC3)OCCO4)nn2)c1` [Example 15, 8-[1-(3-Methyl-5-{[4-(trifluoromethyl)pyrimidin-2-yl]amino}phenyl)-1H-1,2,3-triazol-4-yl]-1,4-dioxaspiro[4.5]decan-8-ol], with 0.0947 µM. Then `Cc1cc(Nc2cc(C(F)(F)F)ccn2)nc(-c2cn(C[C@H]3CNC(=O)O3)nn2)c1` [Example 5.102, (5R)-5-{[4-(4-methyl-6-{[4-(trifluoromethyl)pyridin-2-yl]amino}pyridin-2-yl)-1H-1,2,3-triazol-1-yl]methyl}-1,3-oxazolidin-2-one], with 0.0011 µM; and `Cc1cc(Nc2cc(C(F)F)ccn2)nc(-c2cn(C(C)C3CNC(=O)O3)nn2)c1` (single isomer, unassigned) [Example 7.10, 5-(1-(4-(6-((4-(difluoromethyl)pyridin-2-yl)amino)-4-methylpyridin-2-yl)-1H-1,2,3-triazol-1-yl)ethyl)oxazolidin-2-one], with 0.0017 µM; and `Cc1cc(Nc2nccc(C(F)F)n2)cc(-c2cn(CC3CNC(=O)O3)nn2)c1` (single isomer, unassigned) [Example 7.5, 5-((4-(3-((4-(difluoromethyl)pyrimidin-2-yl)amino)-5-methylphenyl)-1H-1,2,3-triazol-1-yl)methyl)oxazolidin-2-one], with 0.0071 µM. Then `Cc1cc(Nc2cc(C(F)(F)F)ccn2)nc(-c2cn(C(C)C(=O)NCC3(c4ccc(F)cc4)CCOCC3)nn2)c1` (centres unmarked) [Example 1.49, N-{[4-(4-fluorophenyl)tetrahydro-2H-pyran-4-yl]methyl}-2-[4-(4-methyl-6-{[4-(trifluoromethyl)pyridin-2-yl]amino}pyridin-2-yl)-1H-1,2,3-triazol-1-yl]propanamide], with 0.404 µM; and `Cc1cc(Nc2cc(C(F)(F)F)ccn2)nc(-c2cn(CC(O)C(=O)O)nn2)c1` (centres unmarked) [Example 14, 2-Hydroxy-3-(4-(4-methyl-6-((4-(trifluoromethyl)pyridin-2-yl)amino)pyridin-2-yl)-1H-1,2,3-triazol-1-yl)propanoic acid], with 0.0449 µM; and `Cc1cc(Nc2nccc(C(F)(F)F)n2)cc(-n2cc(C3(O)CCNC(=O)CC3)nn2)c1` (centres unmarked) [Example 11.4, 5-hydroxy-5-[1-(3-methyl-5-{[4-(trifluoromethyl)pyrimidin-2-yl]amino}phenyl)-1H-1,2,3-triazol-4-yl]azepan-2-one], with 0.161 µM. On to `Cc1cc(Nc2ncc(F)c(C(F)F)n2)cc(-c2cn(CC3CNC(=O)O3)nn2)c1` (single isomer, unassigned) [Example 7.35, 5-{[4-(3-{[4-(difluoromethyl)-5-fluoropyrimidin-2-yl]amino}-5-methylphenyl)-1H-1,2,3-triazol-1-yl]methyl}-1,3-oxazolidin-2-one], for which the IC50 was found to be 0.0076 µM.

Take `Cc1cc(Nc2nccc(C(F)(F)F)n2)cc(-c2cn(C[C@@H](C)CO)nn2)c1` [Example 5.73, (2R)-2-methyl-3-[4-(3-methyl-5-{[4-(trifluoromethyl)pyrimidin-2-yl]amino}phenyl)-1H-1,2,3-triazol-1-yl]propan-1-ol]: the 50% inhibitory concentration (IC50) is 0.0392 µM.

The term IC50 denotes the point on the concentration scale where inhibition reaches its midpoint.
